Results published in patent US20020198142A1, “Cyclopeptide derivatives” (Merck Patent GmbH, priority 1997, published 2002).

Each substance was assayed on mouse MC3T3 H1 osteoblast cultures (assay: Cell adhesion test: adhesion of osteoblast cultures in vitro to RGD peptide-coated material surfaces). Conditions: 50,000 cells/cm^2 inoculated, serum-free medium, 37°/95% atmospheric humidity, one hour, adhered cells/inoculated cells x 100.
Format: cell-based
Experimental: Example of Cell Adhesion Test
The adhesion of mouse MC3T3 H1 osteoblast cultures in vitro to RGD peptide-coated material surfaces was investigated. In the course of this, 50,000 cells/cm^2 were inoculated and, after incubation in serum-free medium at 37°/95% atmospheric humidity for one hour, the proportion of adherent cells was determined.
Cell adhesion rate [%]=adhered cells/inoculated cells x 100

Substance | cell adhesion rate [%]
cyclo-(Arg-Gly-Asp-D-Phe-Lys(N^ε—(CO—CH2—O—CH2CH2—O—CH2CH2—NH)2—CO—(CH2)5—NH—CO—CH═CH2)) | 110.5
cyclo-(Arg-Gly-Asp-D-Phe-Lys(N^ε—CO—CH2—O—CH2CH2—O—CH2CH2—NH—CO—(CH2)5—NH—CO—CH═CH2)) | 109.0
cyclo-(Arg-Gly-Asp-D-Phe-Lys(N^ε—CO—(CH2)5—NH—CO—CH═CH2)) | 11.3
cyclo-(Arg-Gly-Asp-D-Phe-Lys(N^ε—CO—CH2CH2CO—NH—CH2CH2—SH)) | 86.2
cyclo-(Arg-Gly-Asp-D-Phe-Lys(N^ε—CO—(CH2)5—NH—CO—(CH2)5—NH—CO—CH═CH2)) | 92.4
